Assay results taken from paper PMC6646333 (Nature Communications, 2019).
Converted amounts (≈) assume the structure as drawn.

What was measured:
[1] = test system: MRSA ATCC33591; assay: MIC, broth microdilution, MRSA ATCC33591; format: cell-based; settings: Staphylococcus aureus; broth microdilution (CLSI), MHB + 0.01% polysorbate 80; five independent experiments ± s.d. (n = 5)
Method: (§1) MIC[18] was tested by broth microdilution according to CLSI guidelines. The state of all teixobactin analogs is amorphous, and the compounds are in the salt form of trifluoroacetates. Analogs were stored in DMSO in the concentration of 10 mg/ml. The test medium for most species of bacteria was cation adjusted Mueller–Hinton Broth containing 0.01% polysorbate 80 to prevent analogs binding to plastic surfaces. […] For the test of Streptococci, MHB contains 3% lysed horse blood (Cleveland Scientific, Bath, OH). The concentration of cell was ~5 × 10^5 cells ml^−1. […] Besides the standard strains from ATCC, all the clinical isolates are from 302 hospital. The assay was done three times to confirm results (n = 3).

[2] = test system: MRSA BAA-1695; assay: MIC, broth microdilution, MRSA BAA-1695; format: cell-based, Staphylococcus aureus; settings: for MIC, MRSA BAA-1695: broth microdilution, 0.01% polysorbate 80
Method: as §1

[3] = test system: E. faecalis TH4130; assay: MIC, broth microdilution, E. faecalis TH4130; format: cell-based, Enterococcus faecalis; settings: for MIC, E. faecalis TH4130: broth microdilution, 0.01% polysorbate 80
Method: as §1

[4] = test system: E. faecalis TH4132; assay: MIC, broth microdilution, E. faecalis TH4132; format: cell-based, Enterococcus faecalis; settings: for MIC, E. faecalis TH4132: broth microdilution, 0.01% polysorbate 80
Method: as §1

[5] = test system: S. aureus ATCC29213; assay: MIC, broth microdilution, S. aureus ATCC29213; format: cell-based; settings: Staphylococcus aureus, broth microdilution (CLSI), MHB + 0.01% polysorbate 80, five independent experiments ± s.d. (n = 5)
Method: as §1

[6] = test system: E. faecalis TH4126; assay: MIC, broth microdilution, E. faecalis TH4126; format: cell-based, Enterococcus faecalis; settings: for MIC, E. faecalis TH4126: broth microdilution, 0.01% polysorbate 80
Method: as §1

[7] = test system: VRE TH4937; assay: MIC, broth microdilution, VRE TH4937; format: cell-based, vancomycin resistant Enterococcus faecalis; settings: for MIC, VRE TH4937: broth microdilution, 0.01% polysorbate 80
Method: as §1

[8] = test system: E. faecalis ATCC29212; assay: MIC, broth microdilution, E. faecalis ATCC29212; format: cell-based, Enterococcus faecalis; settings: for MIC, E. faecalis ATCC29212: broth microdilution, 0.01% polysorbate 80
Method: as §1

[9] = test system: S. aureus TH4112; assay: MIC, broth microdilution, S. aureus TH4112; format: cell-based, Staphylococcus aureus; settings: for MIC, S. aureus TH4112: broth microdilution, 0.01% polysorbate 80
Method: as §1

[10] = test system: VRE TH4939; assay: MIC, broth microdilution, VRE TH4939; format: cell-based, vancomycin resistant Enterococcus faecalis; settings: for MIC, VRE TH4939: broth microdilution, 0.01% polysorbate 80
Method: as §1

[11] = test system: MRSA TH4115; assay: MIC, broth microdilution, MRSA TH4115; format: cell-based, Staphylococcus aureus; settings: for MIC, MRSA TH4115: broth microdilution, 0.01% polysorbate 80
Method: as §1

[12] = test system: S. pneumoniae D39; assay: Mouse septicemia protection model; settings: for survival number: 5 mg/kg i.v., 6 mice per group
[13] = test system: MRSA ATCC 33591; assay: Neutropenic mouse thigh infection model; settings: 50 mg /kg i.v., 2 h post infection
[14] = test system: MRSA; settings: ref J Med Chem, 2018, 61, 2009; cited from earlier work
From the text: page 6: Reply: Thanks for the reviewer’s kind comments. […] (please see the reference 34). In the paper published in Scientific Reports, they proposed that two teixobactin bind pyrophosphate-MurNAc and glutamic acid residue of one Lipid II respectively. Undeniably, this is an important discovery. Its structure model also explains experimental obervations that the pyrophosphate-MurNAc moiety is the minimal motif for binding. We selected the similar truncated lipid II i ...

[15] = Enterococcus, VRE, broth microdilution (CLSI), MHB + 0.01% polysorbate 80, 37 °C, 16–20 h, n = 3

CC1(C)S[C@@H]2[C@H](NC(=O)[C@H](N)c3ccccc3)C(=O)N2[C@H]1C(=O)O [Ampicillin]
MIC [1]: > 16 µg/mL
MIC ([2]; Staphylococcus aureus, broth microdilution (CLSI), MHB + 0.01% polysorbate 80, 37 °C, 16–20 h, n = 3): > 32 µg/mL
MIC, MRSA BAA-1695 ([2]; replicate 1 (Source Data)): >32 µg/mL
MIC, MRSA BAA-1695 ([2]; replicate 2 (Source Data)): >32 µg/mL
MIC, MRSA BAA-1695 ([2]; replicate 3 (Source Data)): >32 µg/mL
MIC ([3]; Enterococcus faecalis, TH4130, broth microdilution (CLSI), MHB + 0.01% polysorbate 80, 37 °C, 16–20 h, n = 3): 16 µg/mL
MIC, E. faecalis TH4130 ([3]; replicate 1 (Source Data)): 16 µg/mL (≈ 45.8 µM)
MIC, E. faecalis TH4130 ([3]; replicate 2 (Source Data)): 16 µg/mL (≈ 45.8 µM)
MIC, E. faecalis TH4130 ([3]; replicate 3 (Source Data)): 16 µg/mL (≈ 45.8 µM)
MIC ([4]; Enterococcus faecalis, TH4132, broth microdilution (CLSI), MHB + 0.01% polysorbate 80, 37 °C, 16–20 h, n = 3): 1 µg/mL
MIC, E. faecalis TH4132 ([4]; replicate 1 (Source Data)): 1 µg/mL (≈ 2.86 µM)
MIC, E. faecalis TH4132 ([4]; replicate 2 (Source Data)): 1 µg/mL (≈ 2.86 µM)
MIC, E. faecalis TH4132 ([4]; replicate 3 (Source Data)): 1 µg/mL (≈ 2.86 µM)
MIC [5]: 2 µg/mL
MIC ([6]; Enterococcus faecalis, TH4126, broth microdilution (CLSI), MHB + 0.01% polysorbate 80, 37 °C, 16–20 h, n = 3): > 32 µg/mL
MIC, E. faecalis TH4126 ([6]; replicate 1 (Source Data)): >32 µg/mL
MIC, E. faecalis TH4126 ([6]; replicate 2 (Source Data)): >32 µg/mL
MIC, E. faecalis TH4126 ([6]; replicate 3 (Source Data)): >32 µg/mL
MIC [7, 15]: > 32 µg/mL
MIC, VRE TH4937 ([7]; replicate 1 (Source Data)): >32 µg/mL
MIC, VRE TH4937 ([7]; replicate 2 (Source Data)): >32 µg/mL
MIC, VRE TH4937 ([7]; replicate 3 (Source Data)): >32 µg/mL
MIC ([8]; Enterococcus faecalis, ATCC29212, broth microdilution (CLSI), MHB + 0.01% polysorbate 80, 37 °C, 16–20 h, n = 3): 1 µg/mL
MIC, E. faecalis ATCC29212 ([8]; replicate 1 (Source Data)): 1 µg/mL (≈ 2.86 µM)
MIC, E. faecalis ATCC29212 ([8]; replicate 2 (Source Data)): 1 µg/mL (≈ 2.86 µM)
MIC, E. faecalis ATCC29212 ([8]; replicate 3 (Source Data)): 1 µg/mL (≈ 2.86 µM)
MIC ([9]; Staphylococcus aureus, TH4112, broth microdilution (CLSI), MHB + 0.01% polysorbate 80, 37 °C, 16–20 h, n = 3): 0.5 µg/mL
MIC, S. aureus TH4112 ([9]; replicate 1 (Source Data)): 0.5 µg/mL (≈ 1.43 µM)
MIC, S. aureus TH4112 ([9]; replicate 2 (Source Data)): 0.5 µg/mL (≈ 1.43 µM)
MIC, S. aureus TH4112 ([9]; replicate 3 (Source Data)): 0.5 µg/mL (≈ 1.43 µM)
MIC [10, 15]: > 32 µg/mL
MIC, VRE TH4939 ([10]; replicate 1 (Source Data)): >32 µg/mL
MIC, VRE TH4939 ([10]; replicate 2 (Source Data)): >32 µg/mL
MIC, VRE TH4939 ([10]; replicate 3 (Source Data)): >32 µg/mL
MIC ([11]; Staphylococcus aureus, MRSA, broth microdilution (CLSI), MHB + 0.01% polysorbate 80, 37 °C, 16–20 h, n = 3): 32 µg/mL
MIC, MRSA TH4115 ([11]; replicate 1 (Source Data)): 32 µg/mL (≈ 91.6 µM)
MIC, MRSA TH4115 ([11]; replicate 2 (Source Data)): 32 µg/mL (≈ 91.6 µM)
MIC, MRSA TH4115 ([11]; replicate 3 (Source Data)): 32 µg/mL (≈ 91.6 µM)

CN[C@H](CC(C)C)C(=O)N[C@H]1C(=O)N[C@@H](CC(N)=O)C(=O)N[C@H]2C(=O)N[C@H]3C(=O)N[C@H](C(=O)N[C@H](C(=O)O)c4cc(O)cc(O)c4-c4cc3ccc4O)[C@H](O)c3ccc(c(Cl)c3)Oc3cc2cc(c3O[C@@H]2O[C@H](CO)[C@@H](O)[C@H](O)[C@H]2O[C@H]2C[C@](C)(N)[C@H](O)[C@H](C)O2)Oc2ccc(cc2Cl)[C@H]1O [Vancomycin]
survival number ([12]; 24 h post-infection): 6
survival number ([12]; 36 h post-infection): 6
survival number ([12]; 48 h post-infection): 6
Survival rate 48 h after infection ([12]; single dose 5 mg kg^−1 i.v., 1 h post infection, positive control, six female mice per group): 100%
Log C.F.U. / mouse thigh ([13]; mouse 1): 3.903 Log C.F.U. / mouse thigh
Log C.F.U. / mouse thigh ([13]; mouse 2): 3.176 Log C.F.U. / mouse thigh
Log C.F.U. / mouse thigh ([13]; mouse 3): 3.748 Log C.F.U. / mouse thigh

Arg10-teixobactin
Loss of potency compared with teixobactin [14]: more than 4 fold
MIC against MRSA [14]: 2 µg/mL
